Paper PMC11229689, “In Vitro Selection of Macrocyclic L-α/D-α/β/γ-Hybrid Peptides Targeting IFN-γ/IFNGR1 Protein–Protein Interaction” (Journal of the American Chemical Society, 2024)
Where two headings read alike, the source gives them in different places. *1 amine or outer side, *2 acyl side, *3 side chain or, on linkers, in order; H or OH if unused. Where a SMILES comes first, the peptide text is derived from it. Bridges are numbered along the chain shown (N, C = ends). [ ]: non-standard residue; d: D form. Acbc(trans-1,3) = O=C([C@H]1C[C@H](N[*:1])C1)[*:2]; Acbc(cis-1,3) = O=C([C@H]1C[C@@H](N[*:1])C1)[*:2]; X1 = O=C([C@@H]1CCC[C@@H]1N[*:1])[*:2]; Orn = NCCC[C@H](N)C(=O)O

What was measured:
Fc-tagged human IFNGR1 = target: T1, Fc-tagged human IFNGR1 (Homo sapiens, UniProt P15260); test: Binding kinetics and affinity to IFNGR1 by surface plasmon resonance (SPR); details: SPR, 25 °C, 1:1 binding model; for Kd: read-out: KD; for kon: single-cycle kinetics, read-out: ka
T1 construct: purchased ACROBiosystems
T1 sequence (P15260 18-489): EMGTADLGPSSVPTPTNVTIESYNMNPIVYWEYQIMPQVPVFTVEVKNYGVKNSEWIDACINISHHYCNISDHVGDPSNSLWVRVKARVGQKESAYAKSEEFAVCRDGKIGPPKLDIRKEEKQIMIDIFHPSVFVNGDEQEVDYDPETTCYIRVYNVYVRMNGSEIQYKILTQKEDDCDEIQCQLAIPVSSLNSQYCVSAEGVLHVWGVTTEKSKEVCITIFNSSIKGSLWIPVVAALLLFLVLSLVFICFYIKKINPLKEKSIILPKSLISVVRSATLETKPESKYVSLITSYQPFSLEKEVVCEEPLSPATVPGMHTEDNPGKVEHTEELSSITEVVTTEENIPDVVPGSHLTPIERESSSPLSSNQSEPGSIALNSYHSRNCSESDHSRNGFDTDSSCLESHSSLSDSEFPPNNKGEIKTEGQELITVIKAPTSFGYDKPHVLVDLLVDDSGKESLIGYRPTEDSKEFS
Experimental: (§1) Binding affinities of IA1 and IA2 against IFNGR1 were evaluated by surface plasmon resonance (SPR) (Table 1 and SI Figure S6A). […] To investigate the contribution of the N-terminal [yVPβ^1RR] motif and β^1 residue in IA1, three scrambled peptides IA1s1–3 and a variant IA1β^14A were synthesized and evaluated. […] We next evaluated inhibitory activities of IA1 and IA2 against the ligand–receptor PPI between IFN-γ and IFNGR1 using AlphaLISA (Table 1 and SI Figure S7).[37] […] We also determined the serum half-lives of IA1 and IA2, considering peptidase resistance as an important factor for therapeutic peptides.[24] A sample peptide and a peptidase-resistant internal standard peptide were coincubated in human serum at 37 °C, and the relative amount of the remaining sample peptide was estimated by LC/MS. […]
Evaluation of binding affinity of peptides by surface plasmon resonance The binding affinities of selected peptides and IFNGR1 were analyzed by surface plasmon resonance (SPR) using a Biacore T200 instrument (Cytiva) at 25 °C with the following running buffer: 10 mM Tris-HCl (pH 8.0), 150 mM NaCl, 0.05% (v/v) Tween 20 , and 0.1% (v/v) DMSO. Fc-tagged IFNGR1 was immobilized on a series S sensor chip protein G (Cytiva) to a surface density of 1,200–1,600 response units following the immobilization protocols provided by Cytiva. The kinetic constants were determined by a single-cycle kinetics method by the injection of five different concentrations (twofold dilution series) of each peptide at a flow rate of 30 μL/min. The resulting sensorgrams were fitted to the standard 1:1 interaction model and analyzed using Biacore evaluation software. […]

[1] = target: T2, IFN-γ/IFNGR1 protein–protein interaction (Homo sapiens, UniProt P15260); test: IFNGR1 inhibition assay using AlphaLISA; type: biochemical; details: four-parameter dose–response fit, n = 3
T2 construct: purchased ACROBiosystems
T2 sequence (P15260 18-245 limits assumed): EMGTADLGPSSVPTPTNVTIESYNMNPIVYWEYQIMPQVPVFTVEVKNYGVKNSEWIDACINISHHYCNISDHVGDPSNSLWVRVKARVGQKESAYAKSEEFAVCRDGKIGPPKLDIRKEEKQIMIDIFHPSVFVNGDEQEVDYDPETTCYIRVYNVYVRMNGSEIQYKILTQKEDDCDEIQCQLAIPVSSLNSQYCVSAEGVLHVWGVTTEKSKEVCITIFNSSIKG
Experimental: IFNGR1 inhibition assay using AlphaLISA
The inhibitory activity of peptides against IFN-γ/IFNGR1 protein–protein interaction (PPI) was determined by AlphaLISA.5 Peptides, proteins, and beads were diluted in AlphaLISA immunoassay buffer (PerkinElmer, AL000C). 3.6 μL of 5 nM Fc-tagged IFNGR1 and 3.6 μL of synthetic peptides were mixed in AlphaPlate-384 Shallow Well (PerkinElmer) and preincubated at 25 °C for 10 min. 3.6 μL of 15 nM biotin-tagged IFN-γ was then added to the mix and incubated at 25 °C for 20 min. 3.6 μL each human IgG acceptor beads (PerkinElmer) and streptavidin donor beads (PerkinElmer) were added to the above mix and incubated at 25 °C for 30 min in dark place. Emission at 615 nm was measured […]
by EnSpire Multimode Plate Reader (PerkinElmer). The fraction of bound IFN-γ/IFNGR1 was calculated by the intensity of emission in the presence of peptide divided by that in the absence of […]
peptide. […]
Puromycin. Normocin, Blasticidin, Zeocin, and Puromycin were excluded when conducting the experiments. To evaluate the cellular activity of peptides, peptide mixtures were added to 50,000 cells/well in a flat-bottom 96-well plate and pre-incubated for 30 min at 37 °C before stimulation.
Subsequently, 1 ng/mL of recombinant IFN-γ (InvivoGen) was added to each well in a final reaction volume of 200 μL, followed by incubation for 20 h at 37 °C. 20 μL of supernatants from the induced cells was added to 180 μL Q U A N T I-Blue TM solution (InvivoGen). After further incubation for 3 h at 37 °C, the expression levels of the secreted embryonic alkaline phosphatase (SEAP) were determined by reading the O.D. at 650 nm on a Tecan M1000 PRO microplate reader (Tecan Group) and normalized to the non-treated well. IC50 value was analyzed by a normalized dose-response curve fitting by using GraphPad Prism 9.
HEK-DualTM IFN-γ cells were used for the cell viability assay. 10,000 cells/well were added to each well in a flat-bottom 96-well plate. After 24 h, peptide mixtures were added to each well in a final volume of 100 μL. After further incubation for 24 h, 10 μL CCK-8 reagent (Dojindo) was added to […]

[2] = Serum stability assay (LC/MS); type: in vitro ADME, human; details: for half-life: human
Experimental: as §1
10–200 μM synthetic peptide and 5 μM serum-resistant internal standard peptide consisting only of D-amino acids (NH2-PEG5-wstndwstnd-PEG5-CONH2)3 were mixed and incubated in human serum (Cosmo Bio, 12181201) at 37 °C for up to 120 h. At each time point, 4 μL of the mixture was removed and quenched by adding 12 μl methanol. Following centrifugation (15,000 g, 4 °C, 5 min), 10 μL of the supernatant was mixed with 40 μl of 1% (v/v) TFA. Following centrifugation (15,000 g, 4 °C, 5 min), the supernatant was collected for LC/MS analysis, which used a reverse-phase column (ACQUITY UPLC BEH C18, 1.7 μm, 2.1 × 150 mm; Waters) and a Xevo G2-XS QTof system (Waters) with a linear gradient from 1% B to 61% B. Buffer A was water with 0.1% (v/v) formic acid; buffer B was acetonitrile with 0.1% (v/v) formic acid. The percentages of remaining peptides were determined by the peak area integration of the chromatograms. For tandem mass spectrometry, MS/MS spectra were acquired with a 0.2 s scan time, with 10−30 eV collision energy. The obtained LC/MS data was analyzed using MassLynx 4.1 (Waters). […]

[3] = human serum, 37 °C, LC/MS, relative to internal standard peptide, n = 3, read-out: half-life in human serum (t1/2) (converted)
[4] = serum, half-life in human serum (t1/2)
[5] = human serum, 37 °C, LC/MS, relative to internal standard peptide, n = 3

| SMILES | Kd (Fc-tagged human IFNGR1) [nM] | kon (Fc-tagged human IFNGR1) [M⁻¹ s⁻¹] | IC50 [1] [nM] | half-life [2, 3] [h] | half-life [2, 4] [h] | half-life in human serum (t1/2) [2, 5] [h] |
| --- | --- | --- | --- | --- | --- | --- |
| CC(C)[C@@H]1NC(=O)[C@@H](Cc2ccc(O)cc2)NC(=O)CSC[C@H](C(N)=O)NC(=O)[C@H](CC(N)=O)NC(=O)[C@H](CO)NC(=O)[C@H](CCCNC(=N)N)NC(=O)[C@H](CO)NC(=O)[C@H]2C[C@@H](C2)NC(=O)[C@H](CC(N)=O)NC(=O)[C@H]([C@@H](C)O)NC(=O)[C@H](Cc2c[nH]cn2)NC(=O)[C@H](CCCNC(=N)N)NC(=O)[C@H](CCCNC(=N)N)NC(=O)[C@@H]2CCC[C@@H]2NC(=O)[C@@H]2CCCN2C1=O [IA2, ^AcyVPβ^1RRHTNγ^2SRSNc-NH2] ({CH2CO}-[dY]VP[X1]RRHTN[Acbc(trans-1,3)]SRSN[dC]-NH2; thioether N-15) | 150 ± 40 | 120000 ± 50000 | 330 ± 20 | > 2.6 | – | – |
| CC(C)[C@@H]1NC(=O)[C@@H](Cc2ccc(O)cc2)NC(=O)CSC[C@H](C(N)=O)NC(=O)[C@H](CCCN)NC(=O)[C@H](CO)NC(=O)[C@H](CCCN)NC(=O)[C@H](Cc2c[nH]cn2)NC(=O)CNC(=O)[C@H]2C[C@H](C2)NC(=O)[C@H](Cc2c[nH]cn2)NC(=O)[C@H](CC(N)=O)NC(=O)[C@H](CCCNC(=N)N)NC(=O)[C@H](CCCNC(=N)N)NC(=O)[C@@H]2CCC[C@@H]2NC(=O)[C@H](C)NC1=O [IB1Orn, ^AcyVAβ^1RRNHγ^1GHOSOc-NH2] ({CH2CO}-[dY]VA[X1]RRNH[Acbc(cis-1,3)]GH[Orn]S[Orn][dC]-NH2; thioether N-15) | 11 ± 3 | 1.4e+06 ± 900000 | 17 ± 3 | – | 33 ± 1 | – |
| CC(C)[C@@H]1NC(=O)[C@@H](Cc2ccc(O)cc2)NC(=O)CSC[C@H](C(N)=O)NC(=O)[C@H](CCCNC(=N)N)NC(=O)[C@H](CO)NC(=O)[C@H](CCCNC(=N)N)NC(=O)[C@H](Cc2c[nH]cn2)NC(=O)CNC(=O)[C@H](C)NC(=O)[C@H](Cc2c[nH]cn2)NC(=O)[C@H](CC(N)=O)NC(=O)[C@H](CCCNC(=N)N)NC(=O)[C@H](CCCNC(=N)N)NC(=O)[C@@H]2CCC[C@@H]2NC(=O)[C@H](C)NC1=O [IB1γ^19A, ^AcyVAβ^1RRNHA GHRSRc-NH2] ({CH2CO}-[dY]VA[X1]RRNHAGHRSR[dC]-NH2; thioether N-15) | 9.5 ± 4 | 110000 ± 20000 | 11 ± 4 | 0.17 ± 0.01 | – | – |
| CC(C)[C@@H]1NC(=O)[C@@H](Cc2ccc(O)cc2)NC(=O)CSC[C@H](C(N)=O)NC(=O)[C@H](CCCNC(=N)N)NC(=O)[C@H](CO)NC(=O)[C@H](CCCNC(=N)N)NC(=O)[C@H](Cc2c[nH]cn2)NC(=O)CNC(=O)[C@H]2C[C@@H](C2)NC(=O)[C@H](Cc2c[nH]cn2)NC(=O)[C@H](CC(N)=O)NC(=O)[C@H](CCCNC(=N)N)NC(=O)[C@H](CCCNC(=N)N)NC(=O)[C@@H]2CCC[C@@H]2NC(=O)[C@H](C)NC1=O [IB1γ^19γ^2, ^AcyVAβ^1RRNHγ^2GHRSRc-NH2] ({CH2CO}-[dY]VA[X1]RRNH[Acbc(trans-1,3)]GHRSR[dC]-NH2; thioether N-15) | 47 ± 15 | 250000 ± 250000 | 550 ± 30 | 0.77 ± 0.02 | – | – |
| CC(C)[C@@H]1NC(=O)[C@@H](Cc2ccc(O)cc2)NC(=O)CSC[C@H](C(N)=O)NC(=O)[C@H](C)NC(=O)[C@H](Cc2c[nH]cn2)NC(=O)[C@H](CCCNC(=N)N)NC(=O)[C@H](CCCNC(=N)N)NC(=O)CNC(=O)[C@H]2C[C@H](C2)NC(=O)[C@H](Cc2c[nH]cn2)NC(=O)[C@H](CC(N)=O)NC(=O)[C@H](CCCNC(=N)N)NC(=O)[C@H](CCCNC(=N)N)NC(=O)[C@@H]2CCC[C@@H]2NC(=O)[C@H](C)NC1=O [IB2, ^AcyVAβ^1RRNHγ^1GRRHAc-NH2] ({CH2CO}-[dY]VA[X1]RRNH[Acbc(cis-1,3)]GRRHA[dC]-NH2; thioether N-15) | 31 ± 8 | 200000 ± 90000 | 79 ± 11 | < 1.3 | – | 1.3 ± 0.1 |
| CC(C)[C@@H]1NC(=O)[C@@H](Cc2ccc(O)cc2)NC(=O)CSC[C@H](C(N)=O)NC(=O)[C@H](C)NC(=O)[C@H](CO)NC(=O)[C@H](CCCN)NC(=O)[C@H](CCCN)NC(=O)CNC(=O)[C@H]2C[C@H](C2)NC(=O)[C@H](Cc2c[nH]cn2)NC(=O)[C@H](CC(N)=O)NC(=O)[C@H](CCCNC(=N)N)NC(=O)[C@H](CCCNC(=N)N)NC(=O)[C@@H]2CCC[C@@H]2NC(=O)[C@H](C)NC1=O [IB3Orn, ^AcyVAβ^1RRNHγ^1GOOSAc-NH2] ({CH2CO}-[dY]VA[X1]RRNH[Acbc(cis-1,3)]G[Orn][Orn]SA[dC]-NH2; thioether N-15) | 34 ± 5 | 950000 ± 680000 | 70 ± 4 | – | 42 ± 2 | – |
| CC(C)[C@@H]1NC(=O)[C@@H](Cc2ccc(O)cc2)NC(=O)CSC[C@H](C(N)=O)NC(=O)[C@H](CC(N)=O)NC(=O)[C@H]2C[C@@H](C2)NC(=O)[C@H](CCCNC(=N)N)NC(=O)[C@@H]2CCCN2C(=O)[C@H]([C@@H](C)O)NC(=O)[C@H](CCCNC(=N)N)NC(=O)[C@H](CCCNC(=N)N)NC(=O)[C@H](CO)NC(=O)[C@H](CCCNC(=N)N)NC(=O)[C@H](CCCNC(=N)N)NC(=O)[C@@H]2CCC[C@@H]2NC(=O)[C@@H]2CCCN2C1=O [IB4, ^AcyVPβ^1RRSRRTPRγ^2Nc-NH2] ({CH2CO}-[dY]VP[X1]RRSRRTPR[Acbc(trans-1,3)]N[dC]-NH2; thioether N-15) | 22 ± 11 | 160000 ± 190000 | 47 ± 15 | < 1.3 | – | 1.1 ± 0.0 |
